Measurements from patent US20260091050A1, “ADVANTAGEOUS ANTI-HCV COMBINATION THERAPY” (Atea Pharmaceuticals, Inc., priority 2021, published 2026).

What was measured:
GT1 HCV [1] = assay: Multiple dose study, 7 days QD, non-cirrhotic GT1 HCV-infected patients (Part C); type: in vivo, human; settings: Part C; for Mean ± SD HCV RNA change from baseline to 24 h / Mean ± SD HCV RNA maximum change from baseline: N = 6
Method: (§1) Doses were administered as the Compound 1-A salt base. The free base Compound 1 equivalent is often given in parenthesis.
(§2) Part C was a randomized, double-blind, placebo-controlled MAD study divided into three cohorts. […] The dose escalation only proceeded following satisfactory review of the data.
(§3) HCV-infected patients were treatment-naïve with HCV RNA ≥5 log 10 IU/mL. HCV RNA was quantified using COBAS® AmpliPrep TaqMAN® v2.0 with LLQ of 15 IU/mL. Plasma drug levels were measured using LC-MS/MS. […] Mean ages of enrolled subjects were 44, 39, and 56 years in the non-cirrhotic GT1b 600 mg dose cohort, non-cirrhotic GT3 cohort, and the cirrhotic cohort, respectively.

GT3 HCV = assay: 600 mg QD for 7 days in non-cirrhotic GT3 HCV-infected patients (Part D); type: in vivo, human; settings: Part D, 600 mg/day, N = 6
Method: as §1, §2, §3

GT1, GT2, or GT3 HCV = assay: 600 mg QD for 7 days in Child-Pugh A cirrhotic patients with GT1, GT2 or GT3 HCV (Part E); type: in vivo, human; settings: Part E, 600 mg/day
Method: Doses were administered as the Compound 1-A salt base. The free base Compound 1 equivalent is often given in parenthesis. […]
as §3

HCV NS5A = settings: wide range of HCV genotypes and common clinical mutants; cited from earlier work
[2] = Head-to-head comparison of Compound 1 and Compound 1-A in dogs: plasma levels; type: in vivo; settings: dog plasma, normalized to a dose of 25 mg/kg; 25 mg/kg
Method: A head-to-head comparison of dogs dosed with Compound 1 and Compound 1-A was conducted.

[3] = Plasma profiles of Compound 1 and metabolite 1-7 after single oral dose of Compound 1-A, Sprague-Dawley rats; type: in vivo; settings: rat, single oral dose of Compound 1-A 500 mg/kg (0.5% CMC, 0.5% Tween 80 in water)
[4] = Plasma profiles of Compound 1 and metabolite 1-7 after single oral doses of Compound 1-A, cynomolgus monkeys; type: in vivo; settings: monkey
[5] = tested on: replicons containing the NS5B sequences from HCV laboratory reference strains (GT1a, 1b, 2a, 3a, 4a and 5a); assay: Replicons containing NS5B sequences from laboratory reference strains; type: cell-based; settings: laboratory strains of HCV Genotypes 1-5
[6] = tested on: replicons containing the NS5B sequences from HCV patient plasma samples (GT1a, 1b, 2a, 2b, 3a-1, 3a-2, 4a and 4d); assay: Replicons containing NS5B sequences from HCV patient plasma samples (clinical isolates); type: cell-based
GT1 HCV [7] = assay: Single ascending dose study of Compound 1-A in GT1-HCV infected patients (Part B); type: in vivo, human; settings: single oral dose of Compound 1-A, plasma
Method: Subjects in Part B received a single dose of Compound 1-A in the fasting state. Patients were confined to the clinic from Day −1 to Day 6.
Part B was initiated after the safety (through Day 5) and plasma pharmacokinetic (through 24 h) data review from Cohort 3a in Part A. Available safety data (through Day 5) and pharmacokinetic data (through 24 h) was reviewed for the first cohort in Part B (Cohort 1b) before enrolling subsequent Part B cohorts. Subsequent Part B cohorts were only dosed following review of available safety and pharmacokinetic data from the respective doses in Part A as well as available safety (through Day 5) from the prior Part B cohorts.
Patients infected with HCV were treatment-naïve, non-cirrhotic GT1-infected subjects with a viral load of ≥5 log10 IU/mL.
Baseline was defined as the mean of Day −1 and Day 1 (pre-dose). […] The mean maximum HCV RNA reduction 24 hours post-dose following a single 300 mg dose was 1.7 log10 IU/mL and this compares to a −2 log 10 IU/mL reduction after 1 day of 400 mg of sofosbuvir monotherapy in GT1a HCV-infected subjects. The mean maximum HCV RNA reduction 24 hours post-dose following a single 100 mg dose was 0.8 log10 IU/mL. The mean 10 maximum HCV RNA reduction was 2.2 log10 IU/mL following a single 400 mg dose.

[8] = Three-part study (Parts C, D, E) of Compound 1-A: overall safety/tolerability and pharmacokinetics; type: in vivo, human; settings: for AUC(0-inf): human, in vivo
Method: as §2
HCV-infected patients were treatment-naïve with HCV RNA ≥5 log 10 IU/mL. […] Plasma drug levels were measured using LC-MS/MS.

[9] = Solubility in biorelevant test medias (water, SGF, FaSSIF, FeSSIF); settings: for Appearance: solubility test; for Descriptive term: solubility
[10] = single oral dose of Compound 1-A 30 mg/kg (powder in capsules)
[11] = single oral dose of Compound 1-A 100 mg/kg (powder in capsules)
[12] = single oral dose of Compound 1-A 300 mg/kg (powder in capsules)

Question: For `COC(=O)N[C@H](C(=O)N1CCC[C@H]1c1ncc(-c2cc(F)c3c(c2)O[C@@H](c2cnc(C4CC4)s2)n2c-3cc3cc(-c4cnc([C@@H]5CCCN5C(=O)[C@@H](NC(=O)OC)C(C)C)[nH]4)ccc32)[nH]1)C(C)C` [Compound 2, dimethyl N,N′-([(6S)-6-(2-Cyclopropyl-1,3-thiazol-5-yl)-1-fluoro-6H-indolo[1,2-c][1,3]benzoxazine-3,10-diyl]bis{1H-imidazole-5,2-diyl-(2S)-pyrrolidine-2,1-diyl[(2S)-3-methyl-1-oxobutane-1,2-diyl]})dicarbamate], which “Mean ± SD HCV RNA change from baseline to 24 h” value (from here on “Mean ± SD HCV RNA change”) (GT1 HCV [1]; 150 mg/day) is on record?
Answer: The value was 1.2 ± 0.3 log10 IU/mL.

Question: And the “Mean ± SD HCV RNA maximum change from baseline” value (shortened to “Mean ± SD HCV RNA maximum change”) (GT1 HCV [1]; 150 mg/day)?
Answer: Its value is 2.6 ± 1.1 log10 IU/mL.

Question: What about the “Mean ± SD HCV RNA change” value (GT1 HCV [1]; 300 mg/day) of the same molecule?
Answer: The value was 1.9 ± 0.2 log10 IU/mL.

Question: And the “Mean ± SD HCV RNA maximum change” value (GT1 HCV [1]; 300 mg/day)?
Answer: Its value is 4.0 ± 0.4 log10 IU/mL.

Question: What about the “Mean ± SD HCV RNA change” value (GT1 HCV [1]; 600 mg/day) of the same molecule?
Answer: Its value is 2.1 ± 0.2 log10 IU/mL.

Question: And the “Mean ± SD HCV RNA maximum change” value (GT1 HCV [1]; 600 mg/day)?
Answer: The value was 4.4 ± 0.7 log10 IU/mL.

Question: And the “Mean ± SD HCV RNA change” value (GT3 HCV)?
Answer: The value was 2.3 ± 0.3 log10 IU/mL.

Question: What about the “Mean ± SD HCV RNA maximum change” value (GT3 HCV) of the same molecule?
Answer: Its value is 4.5 ± 0.3 log10 IU/mL.

Question: And the “Individual HCV RNA maximum change from baseline” value (GT1, GT2, or GT3 HCV; GT1b individual subjects, listed as Compd 2)?
Answer: Its value is “GT1b: 4.0, log10 IU/mL”.

Question: What about the “Individual HCV RNA maximum change from baseline” value (GT1, GT2, or GT3 HCV; GT2 individual subject) of the same molecule?
Answer: The value was “GT2: 4.8 log10 IU/mL”.

Question: What about the “Mean ± SD HCV RNA change” value (GT1, GT2, or GT3 HCV; N = 6) of the same molecule?
Answer: Its value is 2.4 ± 0.2 log10 IU/mL.

Question: And the “Mean ± SD HCV RNA maximum change” value (GT1, GT2, or GT3 HCV; N = 6)?
Answer: Its value is 4.6 ± 0.5 log10 IU/mL.

Question: What about the “affinity for HCV NS5A” value (HCV NS5A) of the same molecule?
Answer: Its value is “sub- to low-picomolar”.

Question: What does the source list for `CNc1nc(N)nc2c1ncn2[C@@H]1O[C@H](CO[P@@](=O)(N[C@@H](C)C(=O)OC(C)C)Oc2ccccc2)[C@@H](O)[C@@]1(C)F` [Compound 1, isopropyl((S)-(((2R,3R,4R,5R)-5-(2-amino-6-(methylamino)-9H-purin-9-yl)-4-fluoro-3-hydroxy-4-methyltetrahydrofuran-2-yl)methoxy)(phenoxy)phosphoryl)-L-alaninate]?
Answer: Mean Dose-normalized AUC(0-4 hr) for Compound 1 [2]: 0.2 µM·h; AUC0-last [3]: 78.2 ng·h/mL; Cmax [3]: 60.8 ng/mL; Tmax [3]: 15 min; AUC0-last [4, 10]: 176 ng·h/mL; Cmax [4, 10]: 63.5 ng/mL; Tmax [4, 10]: 30 to 120 min; AUC0-last [4, 11]: 1100 ng·h/mL; Cmax [4, 11]: 783 ng/mL; Tmax [4, 11]: 60 to 120 min; AUC0-last [4, 12]: 1600 ng·h/mL; Cmax [4, 12]: 501 ng/mL; EC50 values, times lower than (more potent than) sofosbuvir [5]: 6-11 times; EC95 ([6]; HCV GT1): approximately 21.7 ng/mL equivalents of metabolite 1-7; EC95 ([6]; HCV GT2): ~11.6 ng/mL equivalents of metabolite 1-7; EC95 ([6]; HCV GT3): ~17.5 ng/mL equivalents of metabolite 1-7; EC95 values, times lower than sofosbuvir ([6]; clinical isolates of all HCV genotypes tested): 7-33 times; EC95 ([6]; clinical isolates, all tested genotypes): < 80 nM; time within which the parent is metabolized (GT1 HCV [7]): ≤ 8 h; half-life (GT1 HCV [1]; daily dosing for 7 days): short half-life; estimated fraction absorbed ([8]; based on urine recovery): ~50%; AUC(0-inf) ([8]; 150 mg/d, AUC Day 1 (AUCinf for Compound 1), Part C, 150 mg/d (n=6), Day 1): 492 ± 141 ng·h/mL; AUC(0-inf) ([8]; 150 mg/d, AUC SS (AUCinf for Compound 1), Part C, 150 mg/d (n=6), steady state): 475 ± 301 ng·h/mL; AUC(0-inf) ([8]; 300 mg/d, AUC Day 1 (AUCinf for Compound 1), Part C, 300 mg/d (n=6), Day 1): 1950 ± 1120 ng·h/mL; AUC(0-inf) ([8]; 300 mg/d, AUC SS (AUCinf for Compound 1), Part C, 300 mg/d (n=6), steady state): 1510 ± 976 ng·h/mL; AUC(0-inf) ([8]; 600 mg/d, AUC Day 1 (AUCinf for Compound 1), Part C, 600 mg/d (n=6), Day 1): 3340 ± 1500 ng·h/mL; AUC(0-inf) ([8]; 600 mg/d, AUC Day 1 (AUCinf for Compound 1), Part D, 600 mg/d (n=6), Day 1): 3330 ± 1240 ng·h/mL; AUC(0-inf) ([8]; 600 mg/d, AUC Day 1 (AUCinf for Compound 1), Part E, 600 mg/d (n=6), Day 1): 3320 ± 1470 ng·h/mL; AUC(0-inf) ([8]; 600 mg/d, AUC SS (AUCinf for Compound 1), Part C, 600 mg/d (n=6), steady state): 4040 ± 2090 ng·h/mL; AUC(0-inf) ([8]; 600 mg/d, AUC SS (AUCinf for Compound 1), Part D, 600 mg/d (n=6), steady state): 3750 ± 2280 ng·h/mL; AUC(0-inf) ([8]; 600 mg/d, AUC SS (AUCinf for Compound 1), Part E, 600 mg/d (n=6), steady state): 3530 ± 1600 ng·h/mL; Appearance ([9]; FaSSIF): Turbid; Appearance ([9]; FeSSIF): Turbid; Appearance ([9]; SGF): Clear Solution; Appearance ([9]; Water): Clear Solution; Descriptive term ([9]; FaSSIF): Slightly Soluble; Descriptive term ([9]; FeSSIF): Slightly Soluble; Descriptive term ([9]; SGF): Sparingly; Descriptive term ([9]; Water): Slightly Soluble
